From patent US8062995B2, “Dioxazine-substituted arylamides” (Bayer CropScience AG, priority 2005, dated 2011) come the findings set out here.

The nature of series [1]: logP determination by HPLC (reversed-phase C18), EEC Directive 79/831 Annex V.A8. It is filed as physicochemical. To be noted: HPLC reversed-phase C18, 43° C., acidic range pH 2.7.
Series [2] has as its system larvae of the mustard beetle (Phaedon cochleariae). Nature of the series: Phaedon test (sprayed Chinese cabbage discs). It is filed as in vivo. To be noted: for Kill rate after 7d in %: 100 g/ha. In outline: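 Compound formulated in acetone/DMF with alkylaryl polyglycol ether emulsifier, diluted in emulsifier-containing water and sprayed onto Chinese cabbage (Brassica pekinensis) leaf discs. After drying, discs infested with Phaedon cochleariae larvae; % kill scored after set time (100% = all larvae dead, 0% = none).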

Series [3] deals with green peach aphid (Myzus persicae). Briefly: Myzus test (MYZUPE spray treatment). It is filed as in vivo. As to conditions: for Kill rate after 5d in %: 100 g/ha, spray treatment. The protocol:
Myzus Test (MYZUPE Spray Treatment) Solvents: 78 parts by weight of acetone • • 1.5 parts by weight of dimethylformamide Emulsifier: 0.5 part by weight of alkylaryl polyglycol ether To produce a suitable preparation of active compound, 1 part by weight of active compound is mixed with the stated amounts of solvents and emulsifier and the concentrate is diluted with emulsifier-containing water to the desired concentration. Discs of Chinese cabbage (Brassica pekinensis), which are infested by all stages of the green peach aphid (Myzus persicae) are sprayed with an active compound preparation of the desired concentration. After the desired period of time, the activity in % is determined. 100% means that all aphids have been killed; 0% means that none of the aphids have been killed.

The subject of series [4] is caterpillars of the army worm (Spodoptera frugiperda). Briefly: Spodoptera frugiperda test (SPODFR spray treatment). It is filed as in vivo. As to conditions: for Kill rate after 7d in %: 100 g/ha, spray treatment. The method, boiled down:
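Compound formulated in acetone/DMF with alkylaryl polyglycol ether emulsifier, diluted in emulsifier-containing water and sprayed on maize leaf discs; after drying, discs infested with Spodoptera frugiperda caterpillars. Mortality (%) scored after a set period, 100% meaning all caterpillars killed.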

Series [5] deals with caterpillars of the army worm (Spodoptera exigua). Briefly: Spodoptera exigua test (leaf dip). It is filed as in vivo. In outline: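 Compound in DMF with alkylaryl polyglycol ether emulsifier, diluted in water to test concentration; cabbage leaves dipped and infested with Spodoptera exigua caterpillars while still moist. Kill (%) scored after a set period, 100% meaning all caterpillars dead.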

Series [6] concerns caterpillars of the cotton bollworm (Heliothis armigera). Briefly: Heliothis armigera test (leaf dip). It is filed as in vivo. In outline:
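Compound was formulated in dimethylformamide with alkylaryl polyglycol ether emulsifier and diluted in emulsifier-containing water. Soya bean leaves were dipped in the preparation and populated with Heliothis armigera caterpillars while still moist. Kill (%) was scored after the desired period.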

Series [7] concerns caterpillars of the diamondback moth (Plutella xylostella). Briefly: Plutella test (leaf dip). It is filed as in vivo. On the procedure:
(§1) Plutella Test Solvent: 7 parts by weight of dimethylformamide Emulsifier: 2 parts by weight of alkylaryl polyglycol ether To produce a suitable preparation of active compound, 1 part by weight of active compound is mixed with the stated amounts of solvent and emulsifier and the concentrate is diluted with emulsifier-containing water to the desired concentration. Cabbages leaves (Brassica oleracea) are treated by being dipped into the active compound preparation of the desired concentration and populated with caterpillars of the diamondback moth (Plutella xylostella) while the leaves are still moist. After the desired period of time, the kill in % is determined. 100% means that all caterpillars have been killed; 0% means that none of the caterpillars have been killed.

The subject of series [8] is green peach aphid (Myzus persicae). Nature of the series: Myzus persicae test; systemic treatment. It is filed as in vivo. As to conditions: for Kill rate after 6d in %: 20 ppm, systemic treatment. On the procedure: Myzus persicae Test; Systemic Treatment Solvent: 7 parts by weight of dimethylformamide Emulsifier: 2 parts by weight of alkylaryl polyglycol ether To produce a suitable preparation of active compound, 1 part by weight of active compound is mixed with the stated amounts of solvent and emulsifier and the concentrate is diluted with water to the desired concentration. The active compound preparation is mixed with water. The stated concentration refers to the amount of active compound per volume unit of water (mg/l=ppm). The treated water is filled into vessels with a pea plant (Pisum sativum) which is then infected with the green peach aphid (Myzus persicae). After the desired period of time, the kill in % is determined. 100% means that all aphids have been killed; 0% means that none of the aphids have been killed.

Series [9] shares this test system. Nature of the series: Myzus test; oral. It is filed as in vivo. The protocol: Myzus Test; Oral Solvent: 80 parts by weight of acetone To produce a suitable preparation of active compound, 1 part by weight of active compound is mixed with the stated amounts of solvent and the concentrate is diluted with water to the desired concentration. Vessels are populated with all stages of the green peach aphid (Myzus persicae) which are treated by sucking the active compound preparation of the desired concentration. After the desired period of time, the activity in % is determined. 100% means that all aphids have been killed; 0% means that none of the aphids have been killed.

The subject of series [10] is Spodoptera frugiperda larvae. Nature of the series: Spodoptera frugiperda test (treatment by watering). It is filed as in vivo. To be noted: 20 ppm; 14 d; treatment by watering. In outline:
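Compound formulated in dimethylformamide with alkylaryl polyglycol ether emulsifier and diluted with water to the desired concentration. Maize plants are watered with the preparation, then infested with Spodoptera frugiperda larvae. After the set period, % larval kill is scored (100% = all killed, 0% = none).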

For series [11], the system named is Spodoptera exigua, resistant strain. Briefly: Spodoptera exigua test; resistant strain. It is filed as in vivo. To be noted: for Kill rate after 7d in %: resistant strain. In outline: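 Cabbage leaves dipped in compound preparation (DMF solvent, alkylaryl polyglycol ether emulsifier, diluted in emulsifier-containing water) and infested with caterpillars while still moist. After the set period, kill scored in %: 100% all caterpillars dead, 0% none dead.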

The subject of series [12] is cotton aphid (Aphis gossypii). Nature of the series: Aphis gossypii test (leaf dip). It is filed as in vivo. As to conditions: for Kill rate after 6d in %: 100 ppm. On the procedure: as §1, with “Aphis gossypii” for “Plutella”, “Cotton” for “Cabbages”, “(Gossypium hirsutum) which are heavily infested by the cotton aphid (Aphis gossypii)” for “(Brassica oleracea)”, “concentration.” for “concentration and populated with caterpillars of the diamondback moth (Plutella xylostella) while the leaves are still moist.”, “aphids” for “caterpillars”

In the case of `Cc1cccc(C2=NOCCN2)c1NC(=O)c1cc(C(F)(F)F)nn1-c1ncccc1Cl` [Example I-1-16], the logP in [1] came to 1.98. Besides, in series [2], the “activity in the Phaedon test (in words)” value is “good activity”. The “Kill rate after 7d in %” value in series [2], in [4], in [5] (20 ppm), in series [6] (20 ppm) and in [7] (100 ppm) was 100% throughout. Further, the “activity in the Myzus test, spray treatment (in words)” value in [3] is “good activity”. The “Kill rate after 5d in %” value was determined as 100% in series [3] and 100% in series [9] (100 ppm, 5 d, oral). Further, in [4], the “activity in the Spodoptera frugiperda test, spray treatment (in words)” value is reported as “good activity”. In addition, in series [5], the “activity in the Spodoptera exigua test (in words)” value is “good activity”. The “activity in the Heliothis armigera test (in words)” value in series [6] is “good activity”. For the same molecule, the “activity in the Plutella test (in words)” value in series [7] is “good activity”. Besides, the “activity in the Myzus persicae test, systemic treatment (in words)” value (from here on “activity in the Myzus persicae test”) in series [8] is “good activity”. Besides, the “Kill rate after 6d in %” value in [8] was determined as 100%. In addition, the “activity in the Myzus test, oral (in words)” value in series [9] is “good activity”.

Molecule `Cc1cc(Cl)cc(C2=NOCCN2)c1NC(=O)c1cc(Br)nn1-c1ncccc1Cl` [Example I-1-19] showed a logP in series [1] of 2.25. In addition, in series [2], the “activity in the Phaedon test (in words)” value is “good activity”. Moreover, the “Kill rate after 7d in %” value is 100% in [2]; 100% in series [4]; 80% in series [5] (4 ppm); 100% in series [6] (4 ppm); 100% in series [11] (20 ppm); 100% in series [7] (0.8 ppm). The “activity in the Myzus test, spray treatment (in words)” value in series [3] is “good activity”. Also, the “Kill rate after 5d in %” value in series [3] is given as 90%. In series [4], the “activity in the Spodoptera frugiperda test, spray treatment (in words)” value is on record as “good activity”. Also, the “Kill rate after 14d in %” value in [10] is listed as 95%. Besides, in series [5], the “activity in the Spodoptera exigua test (in words)” value was “good activity”. Also, the “activity in the Heliothis armigera test (in words)” value in series [6] is listed as “good activity”. Moreover, the “activity in the Spodoptera exigua test, resistant strain (in words)” value in series [11] is recorded as “good activity”. In addition, the “activity in the Plutella test (in words)” value in series [7] is given as “good activity”. Moreover, in [8], the “activity in the Myzus persicae test” value is “good activity”. The “Kill rate after 6d in %” value in series [8] was 90%; in series [12], 80%. Further, the “activity in the Aphis gossypii test (in words)” value in series [12] is “good activity”.

The molecule `Cc1cc(Cl)cc(C2=NOCCN2)c1NC(=O)c1cc(Cl)nn1-c1ncccc1Cl` [Example I-1-20] came in with a logP in [1] of 2.25. Also, in series [2], the “activity in the Phaedon test (in words)” value was “good activity” and the “Kill rate after 7d in %” value is 100%. In [3], the “activity in the Myzus test, spray treatment (in words)” value was “good activity” and the “Kill rate after 5d in %” value is 100%. In addition, in series [4], the “activity in the Spodoptera frugiperda test, spray treatment (in words)” value is listed as “good activity” and the “Kill rate after 7d in %” value came to 100%. In addition, in series [10], the “Kill rate after 14d in %” value is reported as 95%. Moreover, the “activity in the Spodoptera exigua test (in words)” value in series [5] was “good activity”. Moreover, the “Kill rate after 7d in %” value in series [5] (4 ppm) came out at 100%. For the same molecule, in series [6], the “activity in the Heliothis armigera test (in words)” value is given as “good activity”. For the same molecule, the “Kill rate after 7d in %” value in series [6] (4 ppm) turned out to be 100%. In addition, in series [7], the “activity in the Plutella test (in words)” value was “good activity”. Also, the “Kill rate after 7d in %” value in series [7] (4 ppm) came to 100%. In [12], the “activity in the Aphis gossypii test (in words)” value was “good activity” and the “Kill rate after 6d in %” value is given as 80%.

Take `Cc1cc(Cl)cc(C2=NOCCN2)c1NC(=O)c1cc(C(F)(F)F)nn1-c1ncccc1Cl` [Example I-1-18]: in series [1], the logP was 2.70. Besides, the “activity in the Phaedon test (in words)” value in [2] is on record as “good activity”. The “Kill rate after 7d in %” value in series [2], in series [4], in series [5] (100 ppm), in series [6] (20 ppm), in series [11] (100 ppm) and in series [7] (20 ppm) was 100% throughout. Further, the “activity in the Myzus test, spray treatment (in words)” value in series [3] was “good activity”. Besides, in [3], the “Kill rate after 5d in %” value was 100%. The “activity in the Spodoptera frugiperda test, spray treatment (in words)” value in [4] was “good activity”. The “Kill rate after 14d in %” value in series [10] was 95%. The “activity in the Spodoptera exigua test (in words)” value in [5] is on record as “good activity”. Besides, the “activity in the Heliothis armigera test (in words)” value in series [6] is listed as “good activity”. For the same molecule, in series [11], the “activity in the Spodoptera exigua test, resistant strain (in words)” value is given as “good activity”. Besides, in [7], the “activity in the Plutella test (in words)” value is reported as “good activity”. Also, in series [8], the “activity in the Myzus persicae test” value was “good activity”. Moreover, the “Kill rate after 6d in %” value in [8] is reported as 95%.

As usually defined, the logP is the decadic logarithm of the partition coefficient of the neutral form, usually between octanol and water.
